Results as given in patent US20110112032A1, “Regulation of Brain Natriuretic Peptide and Catecholamines for the Treatment of Cardiovascular Diseases” (priority 2005, published 2011).
“And” between values parts separate entries of the source, which are not always exact repeats. Identical values can stand only once. Like-named read-outs stand apart in the source and are kept apart here.

Assays:
[1] = test system: rat myocardial infarct model; format: in vivo
[2] = molecular target: norepinephrine transporter (Rattus norvegicus, UniProt Q63380); format: cell-based
Chain of norepinephrine transporter (Q63380 1-617): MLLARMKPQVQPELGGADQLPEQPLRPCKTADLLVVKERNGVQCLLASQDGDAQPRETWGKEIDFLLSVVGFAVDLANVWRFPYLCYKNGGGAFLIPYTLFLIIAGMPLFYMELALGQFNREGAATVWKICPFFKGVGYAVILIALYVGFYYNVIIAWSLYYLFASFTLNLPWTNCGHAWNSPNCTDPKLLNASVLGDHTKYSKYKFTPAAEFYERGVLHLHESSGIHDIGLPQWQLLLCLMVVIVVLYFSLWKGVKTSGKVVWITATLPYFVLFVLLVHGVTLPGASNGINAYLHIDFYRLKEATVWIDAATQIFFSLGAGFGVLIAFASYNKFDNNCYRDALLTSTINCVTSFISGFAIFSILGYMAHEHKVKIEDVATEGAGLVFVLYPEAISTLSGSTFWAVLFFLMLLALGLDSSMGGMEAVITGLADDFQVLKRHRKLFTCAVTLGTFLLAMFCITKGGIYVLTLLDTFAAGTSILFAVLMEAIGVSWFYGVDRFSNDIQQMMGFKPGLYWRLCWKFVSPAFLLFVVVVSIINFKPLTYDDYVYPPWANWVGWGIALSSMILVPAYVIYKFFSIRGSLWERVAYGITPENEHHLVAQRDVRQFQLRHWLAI

[3] = animal group that received labetalol

Molecule: CC(CCc1ccccc1)NCC(O)c1ccc(O)c(C(N)=O)c1 (stereo not shown) [Labetalol, labetalol]
- Infarct Size ([1]; N = 6, DPDPE 200 ng/kg iv 30 min before occlusion, labetalol 2 mg/kg iv): 16.2 ± 1.7 % of LV
- change in heart rate [1, 3]: mild increase
- change in mean blood pressure compared to the other groups [1, 3]: small reduction
- HR ([1]; rat, in vivo): 213 ± 1 bpm and 223 ± 1 bpm and 244 ± 2 bpm and 235 ± 2 bpm
- Mean BP ([1]; rat, in vivo): 125 ± 2 mmHg and 100 ± 2 mmHg and 78 ± 4 mmHg and 81 ± 4 mmHg

Molecule: CNCCC(Oc1ccccc1OC)c1ccccc1 (stereo not shown) [nisoxetine]
- reduction of [3H]norepinephrine uptake [2]: 36±4%

Molecule: NC[C@H](O)c1ccc(O)c(O)c1 [norepinephrine]
- inhibition of [3H] norepinephrine uptake [2]: 20%
- reduction of [3H]norepinephrine uptake [2]: 20±5%

Molecule: [D-Pen^25]-enkephalin [DPDPE]
- HR ([1]; rat, in vivo): 215 ± 1 bpm and 218 ± 1 bpm and 232 ± 1 bpm and 216 ± 1 bpm
- Infarct Size ([1]; rat, in vivo): 6.6 ± 1.4 % of LV
- Mean BP ([1]; rat, in vivo): 125 ± 1 mmHg and 116 ± 1 mmHg and 89 ± 2 mmHg and 96 ± 1 mmHg
- infarct-size-limiting effect in rats pretreated with labetalol ([1]; rat, in vivo): nearly abolished
- reduction of LV infarct size compared to control ([1]; rat, in vivo, iv): 53%
